Assays:
Format in all cases: cell-based, murine
MutuDC1940 cells [1] = assay: Proliferation assay (confluence by Incucyte)
Procedure: (§1) 1.5×10^4 cells (MutuDC1940) were plated onto 96 wells plates. Next day, cells were treated at 8 μM of compound 6 or vemurafenib or with the vehicle (DMSO) in presence of 0.3 μg/ml of propidium iodide (Sigma) to detect cell death. Proliferation and cell death were quantified by Incucyte® (Essen Biosciences) according to manufacturer's instructions over 48 h.
The results obtained for the proliferation assay are presented on FIG. 2. FIG. 2 presents the confluence, i.e. the percentage of the surface of the culture dish that is covered by the cells, observed during time for a culture of MutuDC1940 cells, a murine model of histiocytosis, treated at 8 μM with compound 6 according to the invention or with vemurafenib (a MAPK/BRAF inhibitor), or with the vehicle (DMSO).
(§2) The same experiments regarding cell proliferation (assessed by confluence in %) and cell death (assessed by number of dead cells on 13 mm^2) as in Example 1 were repeated with additional ERK/MyD88 inhibitors of formula (I): compounds 2, 7 and 17.
(§3) The same experiments regarding cell proliferation (assessed by confluence in %) and cell death (assessed by number of dead cells on 13 mm^2) as in Example 1 were repeated with a lower concentration, which corresponds to the IC50 of vemurafenib (BRAF inhibitor).

MutuDC1940 cells [2] = assay: Cell death assay (propidium iodide, number of dead cells by Incucyte)
Procedure: as §1
The results obtained for the cell death assay are presented on FIG. 3. FIG. 3 presents the number of dead cells observed during time for a culture of MutuDC1940 cells, a murine model of histiocytosis, treated at 8 μM with compound 6 according to the invention or with vemurafenib (a MAPK/BRAF inhibitor), or with the vehicle (DMSO).
as §2, §3

MutuDC1940 cells [3] = assay: CXCL2 quantification assay (ELISA); details: 8 μM, 16 h or 24 h treatment, vs DMSO
Procedure: 0.5×10^6 cells (MutuDC1940) were plated onto 6-well plates. Next day, cells were treated with 8 μM of compound 6 or DMSO for 16 or 24 hours. Each condition was performed in triplicate. Supernatants were collected and murine CXCL2 was measured by ELISA according to the manufacturer's instructions (Invitrogen).

[4] = 8 μM, over 48 h, vs vehicle (DMSO)

Compound | cell proliferation (confluence in %) (MutuDC1940 cells [1]; [4]) | cell death (number of dead cells on 13 mm^2) (MutuDC1940 cells [2]; [4]) | production of CXCL2 (cytokine production) (MutuDC1940 cells [3]) | cell proliferation (confluence in %) (MutuDC1940 cells [1]; ulixertinib at 1 μM, FIG. 11) | cell death (number of dead cells on 13 mm^2) (MutuDC1940 cells [2]; ulixertinib at 1 μM, FIG. 12)
COc1ccc(NC(=O)c2ccc3[nH]c(-c4ccc(N(C)C)cc4)nc3c2)cn1 [compound 6] | inhibits the proliferation of the cells | induces the death of the cells | induces cytokine production | – | –
CC(C)Nc1cc(-c2c[nH]c(C(=O)N[C@H](CO)c3cccc(Cl)c3)c2)c(Cl)cn1 [ulixertinib, reference compound] | – | – | – | only inhibit proliferation | no effect on cell death
